#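 The compound was tested at five concentrations on cells cultured in 96-well plates, with a 48-hour exposure period. GI50 = concentration required for 50% inhibition of growth. TGI: concentration producing complete growth inhibition.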
# Assays:
# Assay in all cases: growth of human tumour cells (NCI), 48 h
# [1] = test system: XF 498 CNS
# [2] = test system: HOP-18 NSCLC
# [3] = test system: DLD-1 colon
# [4] = test system: KM20L2 colon
# [5] = test system: M19-MEL melanoma
# [6] = test system: RXF-631 renal
# [7] = test system: DU-145 prostate
# [8] = test system: NCI/ADR-RES ovarian
# [9] = test system: MDA-N
SMILES,TGI [2] [µM],TGI [3] [µM],TGI [4] [µM],TGI [5] [µM],GI50 [7] [µM],TGI [7] [µM],GI50 [8] [µM],TGI [8] [µM],other results
O=C1C2=C(CCC2)Nc2cccc3ncn1c23,64.2,> 100,> 100,> 100,,,,,TGI [1]: > 100 µM
CC(=O)n1c(=O)c2cc3c(=O)n(-c4cccc(C#N)c4)c(=O)c3cc2c1=O,> 100,> 100,> 100,> 100,,,,,TGI [6]: > 100 µM
Cc1cc2c(cc1Cl)S/C(=C/C(=O)O)C(Nc1cccc3nsnc13)=NS2(=O)=O,,,,,> 16,> 57.3,> 40.2,> 58.9,
OCc1ccc(N2CCOCC2)cc1Cl,,,,,> 100,> 100,> 100,> 100,
O=[N+]([O-])c1ccc(-c2cc3c(Nc4ccc(Cl)c(C(F)(F)F)c4)ncnc3s2)cc1,,,,,1.63,> 100,1.36,> 100,
O=[N+]([O-])c1cc(Cl)ccc1Sc1ccccc1,,,,,,> 100,,> 100,TGI [9]: > 100 µM
CC1=NN(C(=O)c2ccncc2)C(=O)C1N=Nc1ccc(F)cc1 (stereo unspecified),,> 100,> 100,> 100,,,,,TGI [1]: > 100 µM
CCCCCCCCCCCCCC[n+]1cccc(C(N)=O)c1,,,,,3.3,11.6,25.6,> 80.3,
Cc1cccc(N=Nc2ccc(N=Nc3c(O)ccc4ccccc34)cc2C)c1,,,,,,,,50.7,
N.N.N.N.N.O=S(=O)([O-])S(=O)(=O)[O-].[Co+3],,> 100,> 100,,,,,,GI50 [3]: > 100 µM; GI50 [4]: > 100 µM
[2H]c1nc(=Nc2cc(NC(=O)C=C)c(N(C)CCN(C)C)cc2OC)[nH]c(-c2cn(C([2H])([2H])[2H])c3ccccc23)c1[2H],,,,,1.51,11.8,1.39,5.02,
Nc1cc(-c2ccc(Cl)cc2)nn1-c1nnc(/C=C/c2ccco2)c(=O)[nH]1,,,,,4.5,28.2,1.48,10.5,
O=c1[nH]c2cc([N+](=O)[O-])ccc2nc1/C(=N\Nc1ccccc1)C(O)c1ccc2c(c1)OCO2 (stereo unspecified),,> 100,> 100,> 100,,,,,TGI [6]: > 100 µM
CC(C)(C)NCC(COc1ccc([N+](=O)[O-])cc1)OP(c1ccccc1)c1ccccc1 (stereo unspecified),,> 100,> 100,> 100,,,,,TGI [1]: 67.3 µM
c1ccc(-c2nc(N3CCCNCC3)c3nc(-c4ccccc4)oc3n2)cc1,,,,,1.8,3.26,1.91,3.86,
O=C1/C(=C/c2ccc([N+](=O)[O-])cc2)COc2ccc(O)cc21,,,,,13.5,> 100,16.9,> 100,
O=C1c2cccc3cccc(c23)C(=O)N1O,,,,,,> 100,,> 100,TGI [9]: > 100 µM

SMILES,TGI [2] [µM],TGI [3] [µM],TGI [4] [µM],TGI [5] [µM],GI50 [7] [µM],TGI [7] [µM],GI50 [8] [µM],TGI [8] [µM],other results
Cc1ccc(NC(=O)/C(Cc2nc3ccc([N+](=O)[O-])cc3[nH]c2=O)=N\NC(=O)C[n+]2ccccc2)c(C)c1,,,,,,> 100,,> 100,TGI [9]: > 100 µM
CC(=O)[CH-]C(=O)c1ccccc1.CC(=O)[CH-]C(=O)c1ccccc1.CC1(C)OCC(C2OC3OC(C)(C)OC3C2[O-])O1.CC[O-].[Ti+4] (stereo unspecified),56.5,24.7,53.5,24.5,,,,,GI50 [2]: 21.4 µM; GI50 [3]: 9.78 µM; GI50 [4]: 21 µM; GI50 [5]: 10.5 µM
O=C1c2ccccc2-c2c1c1ccccc1c(=O)n2CCNCCn1c2c(c3ccccc3c1=O)C(=O)c1ccccc1-2,,,,,> 25,> 25,> 25,> 25,
Nc1ccccc1C(=O)C(Br)C(Br)c1ccc2c(c1)OCO2 (stereo unspecified),44.4,> 100,31,39.6,,,,,TGI [1]: 34 µM
CCOC(=O)N1CCN(CCCCCOc2ccccc2C2CCCCC2)CC1,,,,,14.4,32.3,2.05,5.66,
Cc1ccc2oc(=O)c(-c3ccccc3)nc2c1,84.4,> 100,,64.8,,,,,TGI [1]: > 100 µM
Cc1cccc(C)c1N1C(=O)C(=O)C(c2nc3ccccc3s2)/C(=N/NC(=O)NN)C1=O (stereo unspecified),> 100,> 100,> 100,> 100,,,,,TGI [1]: > 100 µM
CC1(C)CC(=O)C(CC2C(=O)c3ccccc3C2=O)C(=O)C1,> 100,> 100,> 100,> 100,,,,,
Cc1cc(C)n(C2=NS(=O)(=O)c3ccccc3N2C)n1,,,,,,> 100,,> 100,TGI [9]: > 100 µM
O=C1CNS(=O)(=O)N1,,> 100,,> 100,,,,,TGI [1]: > 100 µM
Cc1c(C)c(CC(=O)N2CC2)c(C)c(C)c1CC(=O)N1CC1,75.3,56.5,47.3,27.4,,15.8,,74.4,TGI [9]: 34.2 µM
O=C1c2ccccc2-c2c1c1c(NCCCO)nc3ccccc3c1n2Cc1ccccc1,,,,,16.3,34.1,18.2,49.4,
CN1c2ccccc2SC2C(c3ccccc3)=NOC21 (stereo unspecified),,,,,,> 100,,87.3,TGI [9]: 52.8 µM
Cc1ccc(C)c(N2C(=O)C(=O)C(c3nc4ccccc4s3)C(=Nc3cccc4c(=O)[nH][nH]c(=O)c34)C2=O)c1 (stereo unspecified),> 100,> 100,> 100,,,,,,TGI [6]: > 100 µM
O=C(CC1(O)C(=O)Nc2c(Cl)ccc(Cl)c21)c1ccc(Cl)cc1Cl (stereo unspecified),> 100,> 100,> 100,20.1,,,,,TGI [1]: 33.9 µM
O=C1[C@H]2ON(c3ccccc3)C(c3ccco3)[C@H]2C(=O)N1c1ccc(Cc2ccc(N3C(=O)[C@@H]4ON(c5ccccc5)C(c5ccco5)[C@@H]4C3=O)cc2)cc1 (stereo partly specified),> 100,> 100,> 100,> 100,,,,,TGI [1]: > 100 µM

# — PubChem BioAssay (NCI)
